Assay results taken from patent US20210038587A1, “METHODS AND COMPOSITIONS FOR TREATING NON-ERK MAPK PATHWAY INHIBITOR-RESISTANT CANCERS” (BIOMED VALLEY DISCOVERIES, INC., priority 2013, published 2021).
Read-outs that look alike come from different tables or passages of the source.

Assay: Phase I study: pharmacokinetic analysis
Format: in vivo, human
Conditions: for AUC(0-t) / Cmax: plasma
Description: Blood samples were collected prior to dosing, and then at 0.5 (±5 min), 1 (±5 min), 2 (±10 min), 4 (±10 min), 6 (±10 min), 8 (±10 min), and 12 (±2 hr) hours on Day 1 (Visit 2; baseline/initiation of treatment) and Day 15 (Visit 4; at steady state) after the morning dose. On Day 22, prior to dose administration, a final blood sample was collected for pharmacokinetic analyses. Urine samples were collected predose and at the 1- to 6-hour and 6- to 12-±2-hour intervals postdose on Days 1 and 15. […] Standard pharmacokinetic parameters were obtained using Phoenix WinNonlin (Pharsight) with a noncompartmental method. Relationship between dose and exposure was calculated using standard least-squares regression analysis.

With `CC(C)Nc1cc(-c2c[nH]c(C(=O)N[C@H](CO)c3cccc(Cl)c3)c2)c(Cl)cn1` [BVD-523] the “urinary excretion within 12 hours postdose” value (first dose and steady state, all dose levels) was < 0.2 % of the dose, the CL renal (human, plasma and urine, oral, n≥3, read-out: mean renal clearance values) was 0.248 to 0.5 mL/min and the AUC(0-t) (human, oral, 10 mg, 10 mg BID, Day 1, read-out: AUC0-12) was 220 ng·h/mL. For the same molecule, the Cmax (human, oral, 10 mg, 10 mg BID, Day 1, read-out: Cmax) was 48.2 ng/mL, the AUC(0-t) (human, oral, 10 mg, 10 mg BID, Day 15, read-out: AUC0-12) was 234 ng·h/mL and the Cmax (human, oral, 10 mg, 10 mg BID, Day 15, read-out: Cmax) was 45.7 ng/mL. It also gave an AUC(0-t) (human, oral, 20 mg, 20 mg BID, Day 1, read-out: AUC0-12) of 91.7 ng·h/mL, a Cmax (human, oral, 20 mg, 20 mg BID, Day 1, read-out: Cmax) of 14.9 ng/mL and an AUC(0-t) (human, oral, 20 mg, 20 mg BID, Day 15, read-out: AUC0-12) of 98.7 ng·h/mL. The Cmax (human, oral, 20 mg, 20 mg BID, Day 15, read-out: Cmax) was 15.8 ng/mL, the AUC(0-t) (human, oral, 40 mg, 40 mg BID, Day 1, read-out: AUC0-12) was 614 ng·h/mL and the Cmax (human, oral, 40 mg, 40 mg BID, Day 1, read-out: Cmax) was 100 ng/mL. The AUC(0-t) (human, oral, 40 mg, 40 mg BID, Day 15, read-out: AUC0-12) was 999 ng·h/mL, the Cmax (human, oral, 40 mg, 40 mg BID, Day 15, read-out: Cmax) was 191 ng/mL and the AUC(0-t) (human, oral, 150 mg, 150 mg BID, Day 1, read-out: AUC0-12) was 817 ng·h/mL. For the same molecule, the Cmax (human, oral, 150 mg, 150 mg BID, Day 1, read-out: Cmax) was 133 ng/mL, the AUC(0-t) (human, oral, 150 mg, 150 mg BID, Day 15, read-out: AUC0-12) was 2770 ng·h/mL and the Cmax (human, oral, 150 mg, 150 mg BID, Day 15, read-out: Cmax) was 326 ng/mL. It also gave an AUC(0-t) (human, oral, 300 mg, 300 mg BID, Day 1, read-out: AUC0-12 ± SD) of 4110 ± 1140 ng·h/mL, a Cmax (human, oral, 300 mg, 300 mg BID, Day 1, read-out: Cmax ± SD) of 765 ± 234 ng/mL and an AUC(0-t) (human, oral, 300 mg, 300 mg BID, Day 15, read-out: AUC0-12 ± SD) of 4460 ± 2460 ng·h/mL. It also gave a Cmax (human, oral, 300 mg, 300 mg BID, Day 15, read-out: Cmax ± SD) of 586 ± 257 ng/mL, an AUC(0-t) (human, oral, 600 mg, 600 mg BID, Day 1, read-out: AUC0-12 ± SD) of 2750 ± 1740 ng·h/mL and an AUC(0-t) (human, oral, 600 mg, 600 mg BID, Day 15, read-out: AUC0-12 ± SD) of 24400 ± 16200 ng·h/mL. The Cmax (human, oral, 600 mg, 600 mg BID, Day 15, read-out: Cmax ± SD) was 2750 ± 170 ng/mL, the AUC(0-t) (human, oral, 750 mg, 750 mg BID, Day 1, read-out: AUC0-12 ± SD) was 10700 ng·h/mL and the Cmax (human, oral, 750 mg, 750 mg BID, Day 1, read-out: Cmax ± SD) was 1450 ± 539 ng/mL. The AUC(0-t) (human, oral, 750 mg, 750 mg BID, Day 15, read-out: AUC0-12 ± SD) was 23300 ng·h/mL, the Cmax (human, oral, 750 mg, 750 mg BID, Day 15, read-out: Cmax ± SD) was 2290 ng/mL and the AUC(0-t) (human, oral, 750 mg, Day 15, reduced from 750 mg to 450 mg/dose, read-out: AUC0-12, individual subject) was 10700 ng·h/mL. The Cmax (human, oral, 750 mg, Day 15, reduced from 750 mg to 450 mg/dose, read-out: Cmax, individual subject) was 1300 ng/mL, the AUC(0-t) (human, oral, 900 mg, 900 mg BID, Day 1, read-out: AUC0-12 ± SD) was 10800 ng·h/mL and the Cmax (human, oral, 900 mg, 900 mg BID, Day 1, read-out: Cmax ± SD) was 1430 ± 1010 ng/mL. For the same molecule, the AUC(0-t) (human, oral, 900 mg, 900 mg BID, Day 15, read-out: AUC0-12 ± SD) was 15900 ng·h/mL, the Cmax (human, oral, 900 mg, 900 mg BID, Day 15, read-out: Cmax ± SD) was 1720 ± 328 ng/mL and the “dose-exposure relationship (Cmax and AUC)” value (up to 600 mg BID) was “linear and dose proportional”.
